The text below walks through data of ChEMBL document CHEMBL5316269, “Rational Design of a New RXR Agonist Scaffold Enabling Single-Subtype Preference for RXRα, RXRβ, and RXRγ” (J Med Chem, 2023).

The first data set has as its target T1, Retinoic acid receptor RXR-alpha (Homo sapiens, UniProt P19793).
T1 sequence (P19793 whole entry): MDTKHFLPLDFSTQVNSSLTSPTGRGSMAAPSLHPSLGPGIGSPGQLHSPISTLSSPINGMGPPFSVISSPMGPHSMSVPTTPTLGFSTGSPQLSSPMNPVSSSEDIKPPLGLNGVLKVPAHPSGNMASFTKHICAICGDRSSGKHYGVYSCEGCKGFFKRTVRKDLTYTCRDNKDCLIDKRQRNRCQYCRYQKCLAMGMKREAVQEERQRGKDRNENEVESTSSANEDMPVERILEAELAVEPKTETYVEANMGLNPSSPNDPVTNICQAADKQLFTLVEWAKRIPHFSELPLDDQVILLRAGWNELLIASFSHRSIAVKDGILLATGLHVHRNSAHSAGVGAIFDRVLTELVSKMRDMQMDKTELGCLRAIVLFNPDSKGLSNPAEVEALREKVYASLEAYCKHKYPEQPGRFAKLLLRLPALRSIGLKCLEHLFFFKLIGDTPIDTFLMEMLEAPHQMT
The experiment in a line: Agonist activity at human GAL4-fused RXRalpha LBD expressed in human HEK293T cells cotransfected with pFR-Luc and pRL-SV40 assessed as increase in luciferase activity incubated for 16 hrs by Dual-Glo luciferase assay. Format: cell-based.
Conditions: not given
Consider `O=C(O)c1cccc(COc2cccc3c2CCC3)c1`, for which the EC50 was found to be 7 µM.

Turning to `O=C(O)CCc1ccc(COc2cccc3c2CCC3)cc1F`, the half-maximal effective concentration (EC50) is 2.2 µM.

Turning to `Cc1cc(COc2cccc3c2CCC3)ccc1C(=O)O`, the EC50 stood at 23 µM.

As for `O=C(O)c1ccc(COc2cccc3c2CCC3)cc1`, the EC50 stood at 1.2 µM.

As to `CN(Cc1ccc(C(=O)O)cc1)c1cccc2c1CCC2`, the half-maximal effective concentration (EC50) worked out at 4.1 µM.

With `O=C(O)c1ccc(CNc2cccc3c2CCC3)cc1`, the EC50 is 3.1 µM.

For `Cc1cc(COc2cccc3c2CCC3)ccc1CC(=O)O`, the EC50 came to 43 µM.

Regarding `O=C(O)c1ccc(COc2cccc3c2CCC3)cc1F`, the EC50 was 0.8 µM.

`Cc1ccc(OCc2ccc(CCC(=O)O)c(Cl)c2)c2c1CCC2`: the EC50 stood at 7 µM.

`Cc1ccc(OCc2ccc(CC(=O)O)cc2)c2c1CCC2`: the EC50 was determined as 2.4 µM.

Consider `Cc1cc(COc2ccc(C)c3c2CCC3)ccc1CCC(=O)O`, for which the half-maximal effective concentration (EC50) came to 0.36 µM.

With `O=C(O)CCc1ccc(COc2cccc3c2CCC3)cc1`, the concentration giving a half-maximal response (EC50) was found to be 0.6 µM.

The next data set addresses T2, Retinoic acid receptor RXR-beta (Homo sapiens, UniProt P28702).
T2 sequence (P28702 whole entry): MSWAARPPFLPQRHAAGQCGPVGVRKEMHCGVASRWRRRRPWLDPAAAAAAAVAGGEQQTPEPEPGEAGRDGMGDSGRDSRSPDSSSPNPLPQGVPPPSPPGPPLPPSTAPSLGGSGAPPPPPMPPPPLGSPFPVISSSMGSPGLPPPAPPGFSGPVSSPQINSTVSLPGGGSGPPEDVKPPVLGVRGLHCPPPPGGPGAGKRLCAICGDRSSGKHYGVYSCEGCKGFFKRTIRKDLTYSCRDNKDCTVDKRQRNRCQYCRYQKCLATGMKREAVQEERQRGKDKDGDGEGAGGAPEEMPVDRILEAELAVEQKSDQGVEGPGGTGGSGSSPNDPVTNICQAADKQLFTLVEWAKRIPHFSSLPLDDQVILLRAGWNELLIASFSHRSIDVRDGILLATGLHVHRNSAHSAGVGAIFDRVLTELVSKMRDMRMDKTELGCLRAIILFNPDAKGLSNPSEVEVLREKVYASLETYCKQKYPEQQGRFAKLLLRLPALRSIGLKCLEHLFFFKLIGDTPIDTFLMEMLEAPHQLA
Briefly: Agonist activity at human GAL4-fused RXRbeta LBD expressed in human HEK293T cells cotransfected with pFR-Luc and pRL-SV40 assessed as increase in luciferase activity incubated for 16 hrs by Dual-Glo luciferase assay. In kind it is cell-based.
Conditions: not given
With `O=C(O)CCc1ccc(COc2cccc3c2CCC3)cc1F`, the EC50 worked out at 2.8 µM.

On to `O=C(O)c1ccc(COc2cccc3c2CCC3)cc1`, for which the EC50 worked out at 1.5 µM.

Take `Cc1cc(COc2cccc3c2CCC3)ccc1CC(=O)O`: the EC50 came to 43 µM.

With `CC1=C2[C@H](/C=C(\C)C(=O)O)CC[C@@H](C)[C@H]2CC1` [VALERENIC ACID], the EC50 turned out to be 5 µM.

`Cc1ccc(OCc2ccc(C(=O)O)c(F)c2)c2c1CCC2`: the concentration for a half-maximal effect (EC50) amounted to 2.9 µM.

With `Cc1ccc(OCc2ccc(CCC(=O)O)c(Cl)c2)c2c1CCC2`, the EC50 came to 8 µM.

For `Cc1ccc(OCc2ccc(CCC(=O)O)cc2)c2c1CCC2`, the concentration giving a half-maximal response (EC50) amounted to 1.1 µM.

Turning to `Cc1ccc(OCc2ccc(CC(=O)O)cc2)c2c1CCC2`, the EC50 was found to be 2.5 µM.

The target in another data set is T3, Retinoic acid receptor RXR-gamma (Homo sapiens, UniProt P48443).
T3 sequence (P48443 whole entry): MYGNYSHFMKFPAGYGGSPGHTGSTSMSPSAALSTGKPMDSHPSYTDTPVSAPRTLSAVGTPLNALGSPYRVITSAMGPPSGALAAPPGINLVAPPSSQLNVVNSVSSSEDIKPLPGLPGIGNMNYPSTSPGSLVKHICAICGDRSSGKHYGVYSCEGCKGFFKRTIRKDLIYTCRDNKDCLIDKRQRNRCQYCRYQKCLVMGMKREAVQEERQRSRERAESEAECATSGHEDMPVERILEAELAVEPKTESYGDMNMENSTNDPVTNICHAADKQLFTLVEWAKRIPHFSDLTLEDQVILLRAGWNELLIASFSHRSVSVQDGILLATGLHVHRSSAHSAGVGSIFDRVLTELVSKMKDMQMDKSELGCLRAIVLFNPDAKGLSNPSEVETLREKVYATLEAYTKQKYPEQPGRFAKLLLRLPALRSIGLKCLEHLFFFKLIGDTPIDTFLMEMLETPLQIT
Briefly: Agonist activity at human GAL4-fused RXRgamma LBD expressed in human HEK293T cells cotransfected with pFR-Luc and pRL-SV40 assessed as increase in luciferase activity incubated for 16 hrs by Dual-Glo luciferase assay. Format: cell-based.
Conditions: not given
As to `Cc1ccc(OCc2ccc(CCC(=O)O)c(F)c2)c2c1CCC2`, the EC50 was 14 µM.

Take `O=C(O)CCc1ccc(COc2cccc3c2CCC3)cc1F`: the concentration for a half-maximal effect (EC50) was determined as 11 µM.

Regarding `CN(Cc1ccc(C(=O)O)cc1)c1cccc2c1CCC2`, the EC50 stood at 14 µM.

For the compound `O=C(O)c1ccc(CNc2cccc3c2CCC3)cc1`, the EC50 came out at 13 µM.

In the case of `Cc1ccc(OCc2ccc(C(=O)O)c(F)c2)c2c1CCC2`, the half-maximal effective concentration (EC50) stood at 11 µM.

As for `Cc1ccc(OCc2ccc(C(=O)O)cc2)c2c1CCC2`, the EC50 stood at 5 µM.

For the compound `Cc1ccc(OCc2ccc(CCC(=O)O)c(Cl)c2)c2c1CCC2`, the 50% effective concentration (EC50) amounted to 10.6 µM.

`O=C(O)CCc1ccc(COc2cccc3c2CCC3)cc1`: the EC50 was 2.6 µM.

The subject of another data set is HEK-293T. Briefly: Cytotoxicity in human HEK293T cells coexpressing GAL4-fused RXRalpha LBD, pFR-Luc and pRL-SV40 assessed as reduction in cell viability at > 10 uM incubated for 16 hrs by Dual-Glo luciferase assay. In kind it is toxicity, cell-based.
Conditions: not given
As to `Cc1ccc(COc2ccc(C)c3c2CCC3)cc1CC(=O)O`, the Activity entry is “Toxic”.

On to `Cc1ccc(COc2cccc3c2CCC3)cc1CC(=O)O`, for which the Activity result is recorded as “Toxic”.

A further data set relates to HEK-293T. The experiment in a line: Cytotoxicity in human HEK293T cells coexpressing GAL4-fused RXRbeta LBD, pFR-Luc and pRL-SV40 assessed as reduction in cell viability at > 10 uM incubated for 16 hrs by Dual-Glo luciferase assay. In kind it is toxicity, cell-based.
Conditions: not given
For the compound `Cc1ccc(COc2ccc(C)c3c2CCC3)cc1CC(=O)O`, the Activity result is on record as “Toxic”.

As to `Cc1ccc(COc2cccc3c2CCC3)cc1CC(=O)O`, the Activity result is “Toxic”.

The next data set relates to HEK-293T. The experiment in a line: Cytotoxicity in human HEK293T cells coexpressing GAL4-fused RXRgamma LBD, pFR-Luc and pRL-SV40 assessed as reduction in cell viability at > 10 uM incubated for 16 hrs by Dual-Glo luciferase assay. In kind it is toxicity, cell-based.
Conditions: not given
`Cc1ccc(COc2ccc(C)c3c2CCC3)cc1CC(=O)O`: the Activity entry is on record as “Toxic”.

Take `Cc1ccc(COc2cccc3c2CCC3)cc1CC(=O)O`: the Activity result is “Toxic”.

For a further data set, the target named is T4, PXR (NR1I2) (Homo sapiens, UniProt O75469).
T4 sequence (O75469 whole entry): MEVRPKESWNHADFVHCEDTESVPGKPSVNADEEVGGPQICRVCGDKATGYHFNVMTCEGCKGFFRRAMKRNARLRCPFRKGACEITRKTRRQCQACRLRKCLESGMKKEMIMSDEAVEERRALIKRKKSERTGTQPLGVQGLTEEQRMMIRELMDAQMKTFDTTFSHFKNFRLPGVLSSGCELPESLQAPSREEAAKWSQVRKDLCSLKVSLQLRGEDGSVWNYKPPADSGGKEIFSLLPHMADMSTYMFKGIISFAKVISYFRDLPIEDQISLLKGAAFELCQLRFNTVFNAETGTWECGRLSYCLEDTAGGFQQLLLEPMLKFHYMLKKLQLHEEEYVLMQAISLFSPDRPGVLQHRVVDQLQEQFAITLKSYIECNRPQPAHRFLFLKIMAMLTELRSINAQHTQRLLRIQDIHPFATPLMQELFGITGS
The experiment in a line: Agonist activity at human GAL4-fused PXR LBD expressed in human HEK293T cells cotransfected with pFR-Luc and pRL-SV40 assessed as increase in luciferase activity at 1 uM incubated for 16 hrs by Dual-Glo luciferase assay relative to control. In kind it is cell-based. The settings on record: HEK293T cells expressing GAL4-fused PXR LBD, read-out: Activity.
Turning to `Cc1cc(COc2ccc(C)c3c2CCC3)ccc1CCC(=O)O`, the activity at 16 h, 1 µM was determined as 12%.

Another data set deals with T5, CAR (NR1I3) (Homo sapiens, UniProt Q14994).
T5 sequence (Q14994 whole entry): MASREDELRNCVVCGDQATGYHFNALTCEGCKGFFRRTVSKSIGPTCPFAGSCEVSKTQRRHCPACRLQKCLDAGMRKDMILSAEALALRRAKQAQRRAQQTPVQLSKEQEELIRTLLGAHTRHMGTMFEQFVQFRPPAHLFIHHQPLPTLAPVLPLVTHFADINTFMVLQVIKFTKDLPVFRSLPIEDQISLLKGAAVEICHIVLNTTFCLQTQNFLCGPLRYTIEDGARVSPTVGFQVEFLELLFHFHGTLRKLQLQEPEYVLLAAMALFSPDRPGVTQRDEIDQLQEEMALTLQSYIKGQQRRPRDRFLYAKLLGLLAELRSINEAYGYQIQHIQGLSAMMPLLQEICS
The experiment in a line: Agonist activity at human GAL4-fused CAR LBD expressed in human HEK293T cells cotransfected with pFR-Luc and pRL-SV40 assessed as increase in luciferase activity at 1 uM incubated for 16 hrs by Dual-Glo luciferase assay relative to control. Format: cell-based. The settings on record: HEK293T cells expressing GAL4-fused CAR LBD, read-out: Activity.
Regarding `Cc1cc(COc2ccc(C)c3c2CCC3)ccc1CCC(=O)O`, the activity at 16 h, 1 µM worked out at 6%.

Another data set addresses T4, PXR (NR1I2). Briefly: Agonist activity at human GAL4-fused PXR LBD expressed in human HEK293T cells cotransfected with pFR-Luc and pRL-SV40 assessed as increase in luciferase activity at 30 uM incubated for 16 hrs by Dual-Glo luciferase assay relative to control. In kind it is cell-based. The settings on record: HEK293T cells expressing GAL4-fused PXR LBD, read-out: Activity.
On to `Cc1ccc(OCc2ccc(CCC(=O)O)c(F)c2)c2c1CCC2`, for which the activity at 16 h, 30 µM was 15%.

In the next data set the target is T5, CAR (NR1I3). The experiment in a line: Agonist activity at human GAL4-fused CAR LBD expressed in human HEK293T cells cotransfected with pFR-Luc and pRL-SV40 assessed as increase in luciferase activity at 30 uM incubated for 16 hrs by Dual-Glo luciferase assay relative to control. The settings on record: HEK293T cells expressing GAL4-fused CAR LBD, read-out: Activity. Format: cell-based.
On to `Cc1ccc(OCc2ccc(CCC(=O)O)c(F)c2)c2c1CCC2`, for which the activity at 16 h, 30 µM came to 9%.

A further data set deals with T3, Retinoic acid receptor RXR-gamma. Briefly: Binding affinity to human RXRgamma LBD and measured for 180 sec by ITC analysis.
Conditions: not given
Turning to `Cc1ccc(OCc2ccc(CCC(=O)O)c(F)c2)c2c1CCC2`, the dissociation constant Kd turned out to be 6 µM.

Another data set has as its target T1, Retinoic acid receptor RXR-alpha. Briefly: Binding affinity to human RXRalpha LBD and measured for 180 sec by ITC analysis.
Conditions: not given
`Cc1cc(COc2ccc(C)c3c2CCC3)ccc1CCC(=O)O` came in with a Kd of 0.2 µM.

Broadly, the EC50 is the concentration at which the effect is half-maximal. As a reminder, the Kd is the concentration at which binding is half-saturated. Low readings indicate higher affinity, high ones lower affinity.
